Assay results as given in PMC8529873, “Carbohydrate-Based NK1R Antagonists with Broad-Spectrum Anticancer Activity” (Journal of Medicinal Chemistry, 2021).
Like-named read-outs stand apart in the source and are kept apart here. Where no end group is shown, it is not given here.

Legend:
[1] = test system: A549 human lung cancer cells; experiment: MTT cytotoxicity assay, 48 h, A549 cells; type: cell-based; conditions: for IC50: read-out: IC50 (mean ± SEM) A549 (cancer)
Text: (§1) First, we evaluated the cytotoxicity of our carbohydrate derivatives against MRC-5 human nonmalignant lung cells and A549 human lung cancer cells using the 3-(4,5-dimethylthiazol-2-yl)-2,5-diphenyltetrazolium bromide (MTT) assay under the same experimental conditions.
(§2) Cell viability was estimated with the 3-(4,5-dimethylthiazol-2-yl)-2,5-diphenyltetrazolium bromide (MTT) assay or the resazurin assay. Both assays are redox-based colorimetric techniques based on the capability of viable cells to reduce the yellow product MTT or the blue reagent resazurin into a purple formazan dye or a pink-colored product, respectively. The number of live cells is directly proportional to the amount of the final product created. Exponentially growing cells were seeded in 96-well plates and were allowed to grow during 24 h. The cells were then treated with several concentrations of the tested compounds for 48–96 h (the incubation periods are specified in the figures and table legends) before measuring the cell viability using the MTT assay or the resazurin assay.
(§3) Then, 80 μL of 20% sodium dodecyl sulfate (SDS) in 20 mM HCl was added to dissolve the insoluble purple formazan product and plates were incubated for 15 h at 37 °C. The optical density (OD) of each well was measured at 540 nm with a multiwell plate spectrophotometer reader to quantify cell survivals.
In both assays, results were expressed as the percentage of cell viability in relation to untreated cells (controls). All data were averaged from two to five independent experiments and were expressed as the means ± standard error of the mean (SEM). For statistical analysis, the t-test (paired, two-tailed) was used. A p value >0.05 is not considered statistically significant and is not represented by any symbol, a p value <0.05 is considered statistically significant and is indicated with an asterisk (*), a p value <0.01 is indicated with a double asterisk (**), and a p value <0.001 is indicated with a triple asterisk (***).

[2] = test system: MRC-5 human nonmalignant lung cells; experiment: MTT cytotoxicity assay, 48 h, MRC-5 cells; type: cell-based
Text: as §1
as §2, with “The cells were then treated with several concentrations of the tested compounds for 48–96 h (the incubation periods are specified in the figures and table legends) before measuring the cell viability using the MTT assay or the resazurin assay.” left out
as §3
In both assays, results were expressed as the percentage of cell viability in relation to untreated cells (controls). All data were averaged from two to five independent experiments and were expressed as the means ± standard error of the mean (SEM). […]

A549 cells [3] = experiment: Cell proliferation after SP, Resazurin assay, 48 h; type: cell-based, human; conditions: SP 2.5 - 200 nM
Experimental: Competition Experiments of Cytotoxic effect of in presence of SP. 14α
First, we treated A549 cells with several concentrations of SP (2.5 - 200 nM) for 48 h and we evaluated cell proliferation with the Resazurin assay. Although it has been reported that A549 […]
of SP. The highest SP concentration tested (200 nM) was added 1 h before 32 µM of 14α or Cisplatin. After a 48 h treatment period, the cell viability was determined with the Resazurin […]
Figure S-4. Evaluation of cytotoxic activity of 14α derivative and Cisplatin on A549 lung cancer cells and HaCaT normal cells in presence of SP. Results are representative of at least three independent experiments. Values are expressed in mean with SEM.
1 O'Connor, T.M.; O'Connell, J.; O'Brien, D.I.; Bennett, M.W.; Goode, T.; Burke, L.; Bredin, C.P.; Shanahan,
(1 picture or pasted object on this page, not shown here)

A549 cancer cells = experiment: Cytotoxicity of 14α in presence or absence of antioxidants (ROS involvement); type: cell-based, human; conditions: A549, 48 h
Experimental: It is known that cancer cells have higher basal levels of reactive oxygen species (ROS) than normal cells, making them more sensitive to exogenous induction of ROS.[33] […] Therefore, we decided to study whether the generation of ROS was involved in the selective cytotoxic effect of 14α. A549 cancer cells were treated with 14α for 48 h in the presence or absence of three antioxidants: N-acetylcysteine (antioxidant activity through the glutathione system), catalase (hydrogen peroxide-degrading enzyme), and Mn(III) tetrakis(1-methyl-4-pyridyl)porphyrin pentachloride (MnTMPyP; superoxide anion scavenger).

A549 cells [4] = experiment: Glycolysis inhibition: glucose consumption and lactate production; type: cell-based, human; conditions: A549 cells exposed for 8 h
Experimental: Our next aim was to study the possible mechanisms involved in the selective anticancer activity of 14α. Because tumor cells rely on glycolysis for survival more than normal cells,[32] we evaluated if our compound behaved as a glycolysis inhibitor. Since glycolysis consumes glucose and produces lactate, we measured the concentrations of glucose and lactate in untreated A549 cells and in cells exposed for 8 h to 14α and to the known glycolysis inhibitor dichloroacetate.
Glycolysis inhibition was assessed by measuring concentrations of glucose ([…] of glycolysis) and lactate (final product of glycolysis) in control and treated cells. Briefly, 4 × 10^5 cells were seeded into 24-well plates. After 10 h, the medium of cells was renewed and drugs were added. Cells were exposed to the tested compounds for 8 h, and glucose and lactate concentrations were determined in cell supernatants using the Accutrend Plus analyzer together with Accutrend glucose strips and BM-Lactate strips (Roche Diagnostics). […] Results are expressed as a percentage of lactate production and percentage of glucose consumption in relation to untreated cells and are shown as the means ± SEM of two independent experiments.

T24 (bladder cancer) = experiment: Resazurin cell viability assay, 96 h, T24; type: cell-based, human
Text: (§4) Cell viability was estimated with the resazurin assay. HaCaT human skin nonmalignant cells were used to study selectivity; these cells are derived from normal adult tissue and have a division rate similar to that of cancer cells.
as §2
(§5) The OD of each well was measured at 540 and 620 nm on a multiwell plate spectrophotometer reader.

MeWo (melanoma; BRAF WT) = experiment: Resazurin cell viability assay, 96 h, MeWo; type: cell-based, human
Text: as §4, §2, §5

[5] = test system: Sk-Br-3 (HER2-positive breast cancer); experiment: Resazurin cell viability assay, 96 h, Sk-Br-3; type: cell-based, human
Text: as §4, §2, §5

PC-3 (prostate cancer) = experiment: Resazurin cell viability assay, 96 h, PC-3; type: cell-based, human
Text: as §4, §2, §5

[6] = test system: KATO III (gastric cancer); experiment: Resazurin cell viability assay, 96 h, KATO III; type: cell-based, human
Text: as §4, §2, §5

HNO97 (tongue cancer) = experiment: Resazurin cell viability assay, 96 h, HNO97; type: cell-based, human
Text: as §4, §2, §5

GAMG (glioblastoma) = experiment: Resazurin cell viability assay, 96 h, GAMG; type: cell-based, human
Text: as §4, §2, §5

[7] = test system: A64-CLS (submaxillary gland adenoma); experiment: Resazurin cell viability assay, 96 h, A64-CLS; type: cell-based, human
Text: as §4, §2, §5

[8] = test system: HaCaT (human skin normal); experiment: Resazurin cell viability assay, 96 h, HaCaT; type: cell-based; conditions: read-out: IC50 (mean ± SEM) HaCaT
Experimental: Thirteen human cancer cells lines and one human nonmalignant cell line were treated with 14α for 96 h. We used longer exposure times because some of these cell lines have long cell cycles (24–48 h); this longer exposure time allows the cells to pass several cycles in the presence of 14α. Cell viability was estimated with the resazurin assay. HaCaT human skin nonmalignant cells were used to study selectivity; these cells are derived from normal adult tissue and have a division rate similar to that of cancer cells. One key limitation of most anticancer drugs is that, in addition to targeting cancer cells, they also target nonmalignant cells with similar division rates. […] These cell lines were at least 3 times more sensitive than the normal cell line to 14α treatment. HepG2 (hepatocarcinoma) and KATO III (gastric cancer) were at least 9-fold more vulnerable to 14α than HaCaT nonmalignant cells.
Cell viability was estimated with the 3-(4,5-dimethylthiazol-2-yl)-2,5-diphenyltetrazolium bromide (MTT) assay or the resazurin assay. […]
For the resazurin assay, after treatment, the medium was removed and 150 μL of resazurin solution (20 μg/mL in medium) was added to each well for 3–6 h. The OD of each well was measured at 540 and 620 nm on a multiwell plate spectrophotometer reader.

[9] = test system: AN3Ca (endometrial adenocarcinoma); experiment: Resazurin cell viability assay, 96 h, AN3Ca; type: cell-based, human
Text: as §4, §2, §5

HT29 (colorectal cancer) = experiment: Resazurin cell viability assay, 96 h, HT29; type: cell-based, human
Text: as §4, §2, §5

HepG2 (hepatocarcinoma) = experiment: Resazurin cell viability assay, 96 h, HepG2; type: cell-based, human
Text: as §4, §2, §5

Sk-OV-3 (ovarian cancer) = experiment: Resazurin cell viability assay, 96 h, Sk-OV-3; type: cell-based, human; conditions: IC50 HaCaT / IC50 Sk-OV-3
Text: as §4, §2, §5

[10] = test system: MDA-MB-231 (triple-negative breast cancer); experiment: Resazurin cell viability assay, 96 h, MDA-MB-231; type: cell-based, human; conditions: IC50 HaCaT / IC50 MDA-MB-231
Text: as §4, §2, §5

Compound: C[C@@H](O[C@H]1OCCN(Cc2n[nH]c(=O)[nH]2)[C@H]1c1ccc(F)cc1)c1cc(C(F)(F)F)cc(C(F)(F)F)c1 [Aprepitant]
- IC50 ([1]; Homo sapiens, A549, MTT assay): 18.3 ± 3.4 µM
- IC50 ([2]; Homo sapiens, MRC5, read-out: IC50 (mean ± SEM) MRC-5 (normal)): 28.9 ± 6.8 µM

Compound: substance P (RPKPQQFFGLM-NH2; ends and bridges not checked; also: 125I label, position not given here) [SP]
- cell proliferation after addition of SP (A549 cells [3]): did not observe any increase in cell proliferation

Compound: C[C@@H](O[C@H]1O[C@@H]2CO[C@@H](c3ccccc3)O[C@@H]2[C@H](O)[C@H]1OCc1ccc(F)cc1)c1cc(C(F)(F)F)cc(C(F)(F)F)c1 [14α, (R)-{1-[3,5-Bis-(trifluoromethyl)phenyl]ethyl} (R)-(4,6-O-Benzylidene)-2-O-p-fluorobenzyl-α-D-galactopyranoside]
- effect of antioxidants (N-acetylcysteine, catalase, MnTMPyP) on cytotoxicity (A549 cancer cells): None of these three antioxidants reduced the cytotoxicity
- glucose consumption and lactate production (glycolysis inhibition) (A549 cells [4]): did not reduce glucose consumption or lactate production

Compound: N.N.[Cl][Pt][Cl] [Cisplatin]
- selectivity index (vs HaCaT; mean ± SEM) T24 (T24 (bladder cancer); IC50 HaCaT / IC50 T24, Resazurin): 1.3 ± 0.0
- IC50 (T24 (bladder cancer); Resazurin assay, read-out: IC50 (mean ± SEM) T24): 1.6 ± 0.5 µM
- selectivity index (vs HaCaT; mean ± SEM) MeWo (MeWo (melanoma; BRAF WT); IC50 HaCaT / IC50 MeWo, Resazurin): 1.0 ± 0.1
- IC50 (MeWo (melanoma; BRAF WT); Resazurin assay, read-out: IC50 (mean ± SEM) MeWo): 2.2 ± 1.1 µM
- selectivity index (vs HaCaT; mean ± SEM) Sk-Br-3 ([5]; IC50 HaCaT / IC50 Sk-Br-3, Resazurin): 0.5 ± 0.1
- IC50 ([5]; Resazurin assay, read-out: IC50 (mean ± SEM) Sk-Br-3): 4.3 ± 0.9 µM
- selectivity index (vs HaCaT; mean ± SEM) PC-3 (PC-3 (prostate cancer); IC50 HaCaT / IC50 PC-3, Resazurin): 0.7 ± 0.2
- IC50 (PC-3 (prostate cancer); Resazurin assay, read-out: IC50 (mean ± SEM) PC-3): 3.1 ± 0.2 µM
- selectivity index (vs HaCaT; mean ± SEM) KATO III ([6]; IC50 HaCaT / IC50 KATO III, Resazurin): 1.2 ± 0.5
- IC50 ([6]; Resazurin assay, read-out: IC50 (mean ± SEM) KATO III): 1.8 ± 0.2 µM
- selectivity index (vs HaCaT; mean ± SEM) HNO97 (HNO97 (tongue cancer); IC50 HaCaT / IC50 HNO97, Resazurin): 0.8 ± 0.1
- IC50 (HNO97 (tongue cancer); Resazurin assay, read-out: IC50 (mean ± SEM) HNO97): 2.5 ± 0.4 µM
- selectivity index (vs HaCaT; mean ± SEM) GAMG (GAMG (glioblastoma); IC50 HaCaT / IC50 GAMG, Resazurin): 0.7 ± 0.0
- IC50 (GAMG (glioblastoma); Resazurin assay, read-out: IC50 (mean ± SEM) GAMG): 3.2 ± 0.9 µM
- IC50 ([1]; MTT assay): 13.5 ± 2.7 µM
- selectivity index (IC50 MRC-5 / IC50 A549) ([1]; mean of indices of each individual experiment, MTT): 8.6 ± 3.9
- selectivity index (vs HaCaT; mean ± SEM) A64-CLS ([7]; IC50 HaCaT / IC50 A64-CLS, Resazurin): 0.5 ± 0.0
- IC50 ([7]; Resazurin assay, read-out: IC50 (mean ± SEM) A64-CLS): 4.5 ± 1.2 µM
- IC50 [8]: 2.1 ± 0.7 µM
- selectivity index (vs HaCaT; mean ± SEM) AN3Ca ([9]; IC50 HaCaT / IC50 AN3Ca, Resazurin): 2.1 ± 1.2
- IC50 ([9]; Resazurin assay, read-out: IC50 (mean ± SEM) AN3Ca): 1.8 ± 1.4 µM
- selectivity index (vs HaCaT; mean ± SEM) HT29 (HT29 (colorectal cancer); IC50 HaCaT / IC50 HT29, Resazurin): 0.4 ± 0.1
- IC50 (HT29 (colorectal cancer); Resazurin assay, read-out: IC50 (mean ± SEM) HT29): 4.9 ± 0.8 µM
- IC50 ([2]; read-out: IC50 (mean ± SEM) MRC-5 (normal)): 99.2 ± 37 µM
- selectivity index (vs HaCaT; mean ± SEM) HepG2 (HepG2 (hepatocarcinoma); IC50 HaCaT / IC50 HepG2, Resazurin): 1.2 ± 0.2
- IC50 (HepG2 (hepatocarcinoma); Resazurin assay, read-out: IC50 (mean ± SEM) HepG2): 1.8 ± 0.2 µM
- selectivity index (vs HaCaT; mean ± SEM) Sk-OV-3 (Sk-OV-3 (ovarian cancer)): 0.5 ± 0.2
- selectivity index (vs HaCaT; mean ± SEM) MDA-MB-231 [10]: 0.3 ± 0.1
